In publication PMC8652888, “Angiogenesis, Anti-Tumor, and Anti-Metastatic Activity of Novel α-Substituted Hetero-Aromatic Chalcone Hybrids as Inhibitors of Microtubule Polymerization” (Frontiers in Chemistry, 2021):
Read-outs that look alike come from different tables or passages of the source.

How the values were obtained:
[1] = system: U937; test: Antiproliferative activity, CCK-8 assay; format: cell-based; conditions: Homo sapiens, U-937
Description: (§1) The synthesized compounds were first evaluated for their cytotoxic effect on MCF-7 (human breast adenocarcinoma), U937 (histiocytic lymphoma cancer), HepG2 (human liver cancer) cells, and MGC-803 (human gastric cancer) using the SRB and CCK-8 assay. As reference compounds CA-4 and colchicine were included.
(§2) The primary tumor cells were purchased from a professional biomedical company. First, the primary tumor cells were incubated in a cell culture incubator at 37°C and 5% CO2. After the cell fusion reached 85%–95%, subculture was performed, and the tumor cells obtained at this time were used for subsequent related experiments. The CCK-8 method was used to inhibit the proliferation of U937 tumor cells, and the SRB method was used to inhibit the proliferation of MCF7 and HepG2 tumor cells.
The cells in the logarithmic growth phase were seeded in a 96-well plate at 8,000/well, and the drug-containing medium and cell suspension were added to the well. Three wells were added with the blank medium as the blank group. The 96-well plate was incubated for 72 h in a 37°C, 5% CO2 incubator. The 10 μl of CCK-8 dye solution was added to each well, and the incubation continued for 3–4 h.

[2] = system: MCF-7; test: Antiproliferative activity, SRB assay; format: cell-based, human; conditions: Homo sapiens;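 further: proliferation of MCF7 cells quantified by sulforhodamine B staining, with optical density read at 560 nm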
[3] = system: HepG2; test: Antiproliferative activity, SRB assay; format: cell-based, human; conditions: Homo sapiens, HepG2
Description: as §1, §2
Cells were distributed into 96-well plates with a density of 3 × 10^3–4 × 10^3 cells per well and incubated for 24 h in a 5% CO2 incubator at 37°C, followed by treatment with study compounds at different concentrations at 37°C for 72 h. One hundred microliters of 10% (w/v) trichloroacetic acid was added to each well, fixed at 4°C for 30 min, and dried at 65°C. Then 100 μl of 0.4% SRB was added to each well and stained on a shaker for 20 min at room temperature. The excess dye solution was washed with newly prepared 1% glacial acetic acid and dried at 65°C. One hundred fifty microliters of 10 mM unbuffered Trisbase was added to each well of the plate and shaken for 5 min to dissolve the dye. The microplate reader measured the optical density (OD) at a wavelength of 560 nm.

[4] = system: MGC-803; test: Antiproliferative activity (SRB and CCK-8 assay); format: cell-based; conditions: Homo sapiens
Description: as §1

[5] = 72 h, triplicate, mean ± SD, read-out: IC50 ± SD, U937
[6] = supplement raw data, read-out: IC50/U937
[7] = MCF7, 72 h, 72 h, triplicate, mean ± SD, read-out: IC50 ± SD, MCF-7
[8] = MCF7, supplement raw data, read-out: IC50/MCF
[9] = 72 h, triplicate, mean ± SD, read-out: IC50 ± SD, HepG2
[10] = supplement raw data, read-out: IC50/MGC
[11] = triplicate, mean ± SD, read-out: IC50 ± SD, MGC-803
[12] = supplement raw data of table 2, read-out: IC50(Hepg2)

| Structure (SMILES) | IC50 [1, 5] [nM] | IC50 [1, 6] [nM] | IC50 [2, 7] [nM] | IC50 [2, 8] [nM] | IC50 [3, 9] [µM] | IC50 [4, 10] [nM] | IC50 [4, 11] [nM] | melting point [°C] | IC50 ([1]; supplement raw data of table 2, read-out: IC50(U937)) [nM] | IC50 ([2]; MCF7, supplement raw data of table 2, read-out: IC50(MCF-7)) [nM] | IC50 [3, 12] [µM] |
| --- | --- | --- | --- | --- | --- | --- | --- | --- | --- | --- | --- |
| COc1cc(C(=O)/C=C/c2coc3ccccc23)cc(OC)c1OC [Compound 6j, (E)-3-(benzofuran-3-yl)-1-(3,4,5-trimethoxyphenyl)prop-2-en-1-one] | 786 ± 346 | 786 | 988 ± 6 | 988 | 4.82 ± 0.102 | 395 | 395 ± 15 | 117.5 to 120.8 | – | – | – |
| COc1cc(C(=O)/C=C/c2nc3ccccc3n2C)cc(OC)c1OC [Compound 6r, (E)-3-[1-methyl-1H-benzo (d)imidazol-2-yl]-1-(3,4,5-trimethoxyphenyl)prop-2-en-1-one] | 1280 ± 71 | – | 5190 ± 465 | – | 4.67 ± 0.295 | – | 2030 ± 225 | 123.5 to 125.2 | – | – | – |
| COc1cc(C(=O)/C=C/c2cccc3c2OCO3)cc(OC)c1OC [Compound 6s, (E)-3-(benzo[d][1,3]dioxol-4-yl)-1-(3,4,5-trimethoxyphenyl)prop-2-en-1-one] | > 20000 | – | 1230 ± 133 | – | 3.32 ± 0.229 | 393 | 393 ± 17 | 138.4 to 140.3 | – | – | – |
| COc1cc(C(=O)/C=C/c2ccc3occc3c2)cc(OC)c1OC [Compound 6m, (E)-3-(benzofuran-5-yl)-1-(3,4,5-trimethoxyphenyl)prop-2-en-1-one] | 6170 ± 1640 | – | 6460 ± 103 | – | > 20 | – | 3180 ± 62 | 110.5 to 115.3 | – | – | – |
| COc1cc(C(=O)/C=C/c2ccc3c(c2)CCO3)cc(OC)c1OC [Compound 6n, (E)-3-(2,3-dihydrobenzofuran-5-yl)-1-(3,4,5-trimethoxyphenyl)prop-2-en-1-one] | > 20000 | – | 3130 ± 415 | – | > 20 | 851 | 851 ± 63 | 107.5 to 110.3 | – | – | – |
| COc1cc(C(=O)/C=C/c2c(C)[nH]c3ccccc23)cc(OC)c1OC [Compound 6b, (E)-3-(2-methyl-1H-indol-3-yl)-1-(3,4,5-trimethoxyphenyl)prop-2-en-1-one] | > 20000 | – | 281 ± 22 | 281 | 14.11 ± 0.117 | 190 | 190 ± 2 | 236.7 to 238.2 | – | – | – |
| COc1cc(C(=O)/C=C/c2ccc3sc4ccccc4c3c2)cc(OC)c1OC [Compound 6q, (E)-3[dibenzo (b,d)thiophen-2-yl]-1-(3,4,5-trimethoxyphenyl)prop-2-en-1-one] | 6380 ± 148 | – | 5090 ± 569 | – | 10.7 ± 0.457 | – | 3220 ± 284 | 118.7 to 119.2 | – | – | – |
| COc1cc(C(=O)/C=C/c2ccc3oc4ccccc4c3c2)cc(OC)c1OC [Compound 6l, (E)-3-[dibenzo (b,d)furan-2-yl]1-(3,4,5-trimethoxyphenyl)prop-2-en-1-one] | 2080 ± 252 | – | 810 ± 68 | 810 | 3.27 ± 0.065 | 326 | 326 ± 16 | 56.5 to 57.6 | – | – | – |
| COc1cc(C(=O)/C=C/c2c(-c3ccccc3)[nH]c3ccccc23)cc(OC)c1OC [Compound 6c, (E)-3-(2-phenyl-1H-indol-3-yl)-1-(3,4,5-trimethoxyphenyl)prop-2-en-1-one] | 601 ± 267 | 601 | 313 ± 17 | 313 | 1.08 ± 0.092 | – | 104 ± 1 | 60.2 to 61.7 | – | – | – |
| COc1cc(C(=O)/C(C#N)=C/c2c(C)[nH]c3ccccc23)cc(OC)c1OC [Compound 8b, (E)-3-(2-methyl-1H-indol-3-yl)-2-(3,4,5-trimethoxybenzoyl)acrylonitrile] | > 20000 | – | > 20000 | – | > 20 | – | – | 216.5 to 218.2 | – | – | – |
| COc1cc(C(=O)/C(C#N)=C/c2ccc3oc4ccccc4c3c2)cc(OC)c1OC [Compound 8l, (E)-3-[dibenzo (b,d)furan-2-yl]-2-(3,4,5-trimethoxybenzoyl)acrylonitrile] | > 20000 | – | > 20000 | – | > 20 | – | – | 181.3 to 182.6 | – | – | – |
| COC(=O)c1ccc2[nH]cc(/C=C(\C)C(=O)c3cc(OC)c(OC)c(OC)c3)c2c1 [Compound 7e, methyl(E)-3-(2-methyl-3-oxo-3-(3,4,5-trimethoxyphenyl)prop-1-en-1-yl)-1H-indole-5-carboxylate] | > 20000 | – | > 20000 | – | > 20 | – | – | 210.4 to 213.7 | – | – | – |
| COc1cc(C(=O)/C(C#N)=C/c2cc3ccccc3s2)cc(OC)c1OC [Compound 8o, (E)-3-[benzo(b)thiophen-2-yl]-2-(3,4,5-trimethoxybenzoyl)acrylonitrile] | > 20000 | – | 14740 ± 141 | – | 1.701 ± 0.013 | – | – | 187.5 to 189.3 | – | – | – |
| COC(=O)c1ccc2c(/C=C(\C)C(=O)c3cc(OC)c(OC)c(OC)c3)c[nH]c2c1 [Compound 7f, methyl(E)-3-(2-methyl-3-oxo-3-(3,4,5-trimethoxyphenyl)prop-1-en-1-yl)-1H-indole-6-carboxylate] | 1620 ± 190 | – | 13700 ± 965 | – | 0.193 ± 0.001 | – | – | 229.3 to 231.7 | – | – | – |
| COc1cc(C(=O)/C(C)=C/c2cc3ccccc3s2)cc(OC)c1OC [Compound 7o, (E)-3-(benzo[b]thiophen-2-yl)-2-methyl-1-(3,4,5-trimethoxyphenyl)prop-2-en-1-one] | 166 ± 3 | – | 187 ± 3 | – | 0.116 ± 0.001 | – | – | 81.4 to 83.2 | 166 | 187 | 0.116 |
| COc1cc(C(=O)/C(C#N)=C/c2cc3c(cc2Br)OCO3)cc(OC)c1OC [Compound 8t, (E)-3-[6-bromobenzo(d)(1,3)dioxol-5-yl]-2-(3,4,5-trimethoxybenzoyl)acrylonitrile] | > 20000 | – | > 20000 | – | > 20 | – | – | 207.1 to 209 | – | – | – |
| COc1cc(C(=O)/C(C#N)=C/c2c(-c3ccccc3)[nH]c3ccccc23)cc(OC)c1OC [Compound 8c, (E)-2-((l2-azaneylidene)-l3-methyl)-3-(2-phenyl-1H-indol-3-yl)-1-(3,4,5-trimethoxyphenyl)prop-2-en-1-one] | 4490 ± 433 | – | 2100 ± 270 | – | 14.1 ± 0.386 | – | – | 253.8 to 255.9 | – | – | – |
| COc1cc(C(=O)/C(C)=C/c2oc3ccccc3c2C)cc(OC)c1OC [Compound 7i, (E)-2-methyl-3-(3-methylbenzofuran-2-yl)-1-(3,4,5-trimethoxyphenyl)prop-2-en-1-one] | 1180 ± 37 | – | 1410 ± 21 | – | 0.879 ± 0.007 | – | – | 113.2 to 115.1 | – | – | 0.879 |
| COc1cc(C(=O)/C(C#N)=C/c2cc3ccccc3o2)cc(OC)c1OC [Compound 8h, (E)-3-(benzofuran-2-yl)-2-(3,4,5-trimethoxybenzoyl)acrylonitrile] | > 20000 | – | > 20000 | – | > 20 | – | – | 168.3 to 169.5 | – | – | – |
